Experimental data as given in US20230014447A1 (priority 2019, published 2023).
In brackets after ≈: the same amount, converted by molar mass. Read-outs that look alike come from different tables or passages of the source. Marks after values point to notes of the source that are not given here.

System: Legionella pneumophila MMX 7515
Experiment: microbe, parasite or virus in culture
Format: cell-based
Conditions: for MIC: Legionella pneumophila
[1] = MMX7515, 24 h, read-out: MIC (in vitro activity)
[2] = MMX7515, 48 h, read-out: MIC (in vitro activity)

Compound	MIC [1] [mg/L]	MIC [2] [mg/L]	MIC (in vitro activity) (L. pneumophila MMX 7515, plate read at 48 hr)	MIC (in vitro activity) (Legionella pneumophila MMX 7515, plate read at 24 hr)	MIC (MMX7515, read-out: MIC values) [mg/L]
C[C@@H](O)[C@H]1C(=O)N2C(C(=O)O)=C(S[C@@H]3CN[C@H](C(=O)N(C)C)C3)[C@H](C)[C@H]12 [MEM, meropenem]	0.25 (≈ 0.652 µM)	0.5 (≈ 1.3 µM)	–	–	–
C[C@H]1COc2c(N3CCN(C)CC3)c(F)cc3c(=O)c(C(=O)O)cn1c23 [LVX, levofloxacin]	0.5 (≈ 1.38 µM)	0.5 (≈ 1.38 µM)	–	–	–
CN[C@H](CC(C)C)C(=O)N[C@H]1C(=O)N[C@@H](CC(N)=O)C(=O)N[C@H]2C(=O)N[C@H]3C(=O)N[C@H](C(=O)N[C@H](C(=O)O)c4cc(O)cc(O)c4-c4cc3ccc4O)[C@H](O)c3ccc(c(Cl)c3)Oc3cc2cc(c3O[C@@H]2O[C@H](CO)[C@@H](O)[C@H](O)[C@H]2O[C@H]2C[C@](C)(N)[C@H](O)[C@H](C)O2)Oc2ccc(cc2Cl)[C@H]1O [VAN, vancomycin]	0.12 (≈ 0.0828 µM)	0.25 (≈ 0.173 µM)	–	–	–
gentamicin	–	–	2** μg/mL	1* μg/mL	–
C=C(C)C1CCC(C)=CC1c1c(O)cc(CCCCC)cc1O (centres unmarked) [CBD, 2-[3-methyl-6-(1-methylethenyl)-2-cyclohexen-1-yl]-5-pentyl-1,3-benzenediol]	1 (≈ 3.18 µM)	1 (≈ 3.18 µM)	–	–	1 (≈ 3.18 µM)
